Source: patent US20210277050A1, “OPHTHALMIC COMPOSITIONS AND METHODS FOR THE TREATMENT OF EYE DISORDERS” (Cellix Bio Private Limited, priority 2018, published 2021)

Legend:
Lens GSH = Lens GSH and GSSG level (enzymatic recycling method) in BSO-treated rats
Procedure: Animals were divided into 3 groups and given 4 injections per day for 2 days, according to the following protocol: Each experimental group consisted of 20-25 animals. BSO, L-Buthionine-(S,R)-sulfoximine was dissolved in 0.1 M NaCl and injected at a concentration of 3 mmol/g body weight (total volume not exceeding 60 ml). CLX-SYN-G165-001 was dissolved in ethanol: NaCl (50:50, v/v). BSO was injected subcutaneously into new born animals (age 28-36 hours). CLX-SYN-G165-001 (15 mg/kg b.w.) was given intraperitoneally. An equivalent volume of ethanol: NaCl and/or NaCl was given to the controls. Rats were sacrificed when they opened their eyes (14-15 days). […] Isolation of lenses: After decapitation of the animals the eyes were carefully dissected out from the ciliary body and the lens capsule was released from the enucleated eye globes. Each lens was weighed and placed in a microfuge tube and frozen immediately in liquid nitrogen for future analyses. Glutathione: Frozen lenses were homogenized in 5% sulfosalicylic acid, 5 mM EDTA, ice cold and bubbled with argon. After centrifugation GSH and GSSG were determined by the enzymatic recycling method.

[1] = test system: BSO-Induced Cataract Formation; test: BSO-induced cataract formation in rats (slit-lamp, lenses opaque or clear); settings: read at 14-15 days; for animals developed cataract: new born rats
Procedure: Effects of CLX-SYN-G165-001 on BSO-Induced Cataract Formation in Rats Sprague-Dawley rats (female, timed pregnant) were housed in the Research Animal Facilities and given food and water ad libitum. They were breast fed.
Animals were divided into 3 groups and given 4 injections per day for 2 days, according to the following protocol: Each experimental group consisted of 20-25 animals. BSO, L-Buthionine-(S,R)-sulfoximine was dissolved in 0.1 M NaCl and injected at a concentration of 3 mmol/g body weight (total volume not exceeding 60 ml). CLX-SYN-G165-001 was dissolved in ethanol: NaCl (50:50, v/v). BSO was injected subcutaneously into new born animals (age 28-36 hours). CLX-SYN-G165-001 (15 mg/kg b.w.) was given intraperitoneally. An equivalent volume of ethanol: NaCl and/or NaCl was given to the controls. Rats were sacrificed when they opened their eyes (14-15 days). Cataract formation was visualized with a slit-lamp microscope and the lenses were classified as opaque or clear.

Structure (SMILES) | GSH in the lenses, % lower than that of the control lenses (Lens GSH; BSO-treated rats) | animals developed cataracts ([1]; BSO alone, subcutaneously, new born rats (age 28-36 hours)) | lens GSH level, % that of control level (Lens GSH; treatment with BSO and CLX-SYN-G165-001, p<0.001 vs BSO only) | animals developed cataract ([1]; BSO plus CLX-SYN-G165-001 (15 mg/kg b.w. intraperitoneally), 4 injections per day for 2 days, p<0.005 vs BSO only) | animals developed cataract ([1]; CLX-SYN-G165-001 without BSO (15 mg/kg b.w. intraperitoneally))
CCCCS(=N)(=O)CCC(N)C(=O)O [BSO, L-Buthionine-(S,R)-sulfoximine, reference compound] | about 55% | 100% |  |  | 
CC(C)=CCC[C@@H](C)[C@H]1CC[C@@]2(C)C3=C(CC[C@]12C)[C@@]1(C)CC[C@H](OC(=O)CCCC[C@@H]2CCSS2)C(C)(C)[C@@H]1CC3 [CLX-SYN-G165-001] |  |  | 84-87% | 13% | 0%
